Experiments:
[1] = system: RIN5F (Rat Insulinoma) cells; assay: In vitro glucose-dependent insulin secretion (RIN5F cell assay screening protocol); format: cell-based; details: 16.7 mM glucose load
Human GLP-1 receptor = target: T1, Human GLP-1 receptor (Homo sapiens, UniProt P43220); assay: In vitro Human GLP-1 R agonist activity (cyclic AMP determination) in CHO/human GLP1R cells; format: cell-based
T1 construct: The full-length cDNA was cloned in pcDNA3.1(+); expressed in transfected cells

human glucagon receptor = target: T2, human glucagon receptor (Homo sapiens, UniProt P47871); assay: In vitro human glucagon antagonist activity (inhibition of cAMP production) in CHO/human glucagon R cells; format: cell-based; details: with saturated concentration of glucagon peptide
T2 construct: The full-length cDNA was cloned in pcDNA3.1 (Invitrogen); expressed in transfected cells

DPP IV = DPP IV (Homo sapiens, UniProt P27487); assay: Stability against DPP IV enzyme; format: in vitro ADME; details: 37° C.; for % degradation of peptidomimetics in 24 h when incubated with DPP-IV enzyme: 2 μM peptidomimetic; for half-life at 2 μM: DPP IV enzyme, pH 7.8, 2 μM peptidomimetic, read-out: half-life (t1/2) when incubated with DPP-IV enzyme
Description: (§1) Reactions were terminated by the addition of TFA/H2O (15 mL, 10% (v/v)). […] The column was equilibrated with TFA/H20, at a flow rate of 1 mL/min.

[2] = Stability in human plasma; format: in vitro ADME; details: 2 μM peptidomimetic, pooled human plasma, 37° C.; for half-life at 2 μM: pH 7.8, read-out: half-life (t1/2) when incubated with human plasma
Description: as §1

[3] = Stability in simulated gastric fluid; format: in vitro ADME; details: 2 μM peptidomimetic, simulated gastric fluid pH 1.5, 37° C.; for half-life at 2 μM: read-out: half-life (t1/2) when incubated with simulated gastric fluid
Description: as §1

[4] = Stability in simulated intestinal fluid; format: in vitro ADME; details: 2 μM peptidomimetic, simulated intestinal fluid pH 7.5, 37° C.; for half-life at 2 μM: read-out: half-life (t1/2) when incubated with simulated intestinal fluid
Description: as §1

[5] = Stability in liver microsomes; format: in vitro ADME; details: 2 μM peptidomimetic, human liver microsomes, 37° C.; for half-life at 2 μM: pH 7.8, read-out: half-life (t1/2) when incubated with liver microsomes
Description: as §1

Chain of DPP IV (P27487 whole entry, species assumed): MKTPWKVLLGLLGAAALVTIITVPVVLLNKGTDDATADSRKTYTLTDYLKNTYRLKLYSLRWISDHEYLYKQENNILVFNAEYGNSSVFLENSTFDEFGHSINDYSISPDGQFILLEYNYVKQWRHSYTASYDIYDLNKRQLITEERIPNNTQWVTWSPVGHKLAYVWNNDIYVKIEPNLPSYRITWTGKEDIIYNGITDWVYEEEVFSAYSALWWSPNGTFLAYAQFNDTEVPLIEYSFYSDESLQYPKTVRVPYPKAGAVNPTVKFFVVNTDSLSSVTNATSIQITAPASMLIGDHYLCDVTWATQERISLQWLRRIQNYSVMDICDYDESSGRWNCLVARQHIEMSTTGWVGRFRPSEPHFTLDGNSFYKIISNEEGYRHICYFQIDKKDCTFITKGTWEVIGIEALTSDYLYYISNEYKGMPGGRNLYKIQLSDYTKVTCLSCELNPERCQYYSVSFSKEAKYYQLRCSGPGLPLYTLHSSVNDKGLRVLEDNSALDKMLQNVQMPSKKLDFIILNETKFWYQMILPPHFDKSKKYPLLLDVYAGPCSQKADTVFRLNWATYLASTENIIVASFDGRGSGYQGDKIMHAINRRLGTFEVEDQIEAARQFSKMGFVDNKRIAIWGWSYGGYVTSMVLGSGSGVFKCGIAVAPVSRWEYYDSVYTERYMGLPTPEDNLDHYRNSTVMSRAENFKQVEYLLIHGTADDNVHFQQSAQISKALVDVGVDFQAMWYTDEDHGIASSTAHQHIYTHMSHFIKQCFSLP
T1 sequence (P43220 24-463): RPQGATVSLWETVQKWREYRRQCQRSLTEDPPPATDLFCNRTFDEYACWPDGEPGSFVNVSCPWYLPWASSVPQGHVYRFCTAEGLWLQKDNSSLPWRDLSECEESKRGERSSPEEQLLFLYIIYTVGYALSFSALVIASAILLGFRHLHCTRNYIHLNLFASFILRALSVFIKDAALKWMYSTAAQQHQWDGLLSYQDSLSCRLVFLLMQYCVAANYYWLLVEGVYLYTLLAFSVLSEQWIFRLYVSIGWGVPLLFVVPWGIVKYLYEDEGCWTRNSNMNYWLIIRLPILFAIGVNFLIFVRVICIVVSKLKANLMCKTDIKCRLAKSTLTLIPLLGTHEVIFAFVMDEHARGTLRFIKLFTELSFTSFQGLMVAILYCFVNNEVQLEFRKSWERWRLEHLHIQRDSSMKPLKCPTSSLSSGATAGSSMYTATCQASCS
T2 sequence (P47871 26-477): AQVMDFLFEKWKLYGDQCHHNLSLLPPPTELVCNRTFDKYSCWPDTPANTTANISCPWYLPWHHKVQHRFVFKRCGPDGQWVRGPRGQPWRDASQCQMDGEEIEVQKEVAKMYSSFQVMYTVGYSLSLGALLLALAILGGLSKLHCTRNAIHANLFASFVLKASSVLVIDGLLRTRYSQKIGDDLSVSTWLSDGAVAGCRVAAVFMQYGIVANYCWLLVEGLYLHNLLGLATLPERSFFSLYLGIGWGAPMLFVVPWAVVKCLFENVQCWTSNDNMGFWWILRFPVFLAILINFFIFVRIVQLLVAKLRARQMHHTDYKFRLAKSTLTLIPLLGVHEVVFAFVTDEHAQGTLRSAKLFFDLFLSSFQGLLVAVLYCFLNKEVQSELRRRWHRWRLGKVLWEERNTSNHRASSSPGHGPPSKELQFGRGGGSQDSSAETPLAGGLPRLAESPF

Compound	Insulin secretion ([1]; 0.1 nM test compd.)	Insulin secretion ([1]; 1 nM test compd.)	Insulin secretion ([1]; 10 nM test compd.)	Human GLP-1 R activity (cAMP release), % activity with respect to control (Human GLP-1 receptor; 1 nM test compound)	Human GLP-1 R activity (cAMP release), % activity with respect to control (Human GLP-1 receptor; 10 nM test compound)	Human GLP-1 R activity (cAMP release), % activity with respect to control (Human GLP-1 receptor; 100 nM test compound)	Human GLP-1 R activity (cAMP release), % activity with respect to control (Human GLP-1 receptor; 1 μM test compound)	Human GLP-1 R activity (cAMP release), % activity with respect to control (Human GLP-1 receptor; 10 μM test compound)	Human Glucagon receptor antagonistic activity shown as inhibition of cAMP production of Glucagon peptide (human glucagon receptor; 1 nM test compound)	Human Glucagon receptor antagonistic activity shown as inhibition of cAMP production of Glucagon peptide (human glucagon receptor; 10 nM test compound)	Human Glucagon receptor antagonistic activity shown as inhibition of cAMP production of Glucagon peptide (human glucagon receptor; 100 nM test compound)	Human Glucagon receptor antagonistic activity shown as inhibition of cAMP production of Glucagon peptide (human glucagon receptor; 1 μM test compound)	Human Glucagon receptor antagonistic activity shown as inhibition of cAMP production of Glucagon peptide (human glucagon receptor; 10 μM test compound)	% degradation of peptidomimetics in 24 h when incubated with DPP-IV enzyme (DPP IV)	% degradation of peptidomimetics in 24 h when incubated with human plasma [2]	% degradation of peptidomimetics in 24 h when incubated with simulated gastric fluid [3]	half-life at 2 μM [3]	% degradation of peptidomimetics in 24 h when incubated with simulated intestinal fluid [4]	half-life at 2 μM [4]	% degradation of peptidomimetics in 24 h when incubated with liver microsomes [5]	other results
CCc1cc(OC)ccc1-c1ccc(CC(NC(=O)[C@H](CC(=O)O)NC(=O)[C@H](CO)NC(=O)[C@@H](NC(=O)[C@H](Cc2ccccc2)NC(=O)[C@@H](NC(=O)CNC(=O)C(CCC#N)NC(=O)C(C)(C)NC(=O)[C@@H](N)Cc2c[nH]cn2)[C@@H](C)O)[C@@H](C)O)C(=O)NC(CCCc2ccccc2F)C(N)=O)cc1 (single isomer, unassigned) [compound 77]	15.6 ± 0.33 pg/µg/h	21.8 ± 0.16 pg/µg/h	35.6 ± 0.26 pg/µg/h	40 ± 0.09%	81 ± 0.07%	87 ± 0.04%	95 ± 0.01%	98 ± 0.08%	20 ± 0.06 pmol/ml/μg prt	18 ± 0.09 pmol/ml/μg prt	16 ± 0.01 pmol/ml/μg prt	14 ± 0.03 pmol/ml/μg prt	12 ± 0.01 pmol/ml/μg prt	74%	75%	100%	0.5 h	100%	0.5 h	100%	half-life (t1/2) when incubated with human plasma [2]: (9) h; half-life at 2 μM [5]: 0.5 h
CCc1cc(OC)ccc1-c1ccc(CC(NC(=O)[C@H](CC(=O)O)NC(=O)[C@H](CO)NC(=O)[C@@H](NC(=O)C(C)(Cc2ccccc2F)NC(=O)[C@@H](NC(=O)CNC(=O)C(CCC#N)NC(=O)C(C)(C)NC(=O)[C@@H](N)Cc2c[nH]cn2)[C@H](C)O)[C@H](C)O)C(=O)NC(CCCc2ccccc2F)C(N)=O)cc1 (single isomer, unassigned) [compound 116]	16.4 ± 0.12 pg/µg/h	22.7 ± 0.17 pg/µg/h	36.6 ± 0.05 pg/µg/h	55 ± 0.16%	88 ± 0.13%	92 ± 0.11%	99 ± 0.07%	99 ± 0.09%	2 ± 0.03 pmol/ml/μg prt	0 pmol/ml/μg prt	0 pmol/ml/μg prt	0 pmol/ml/μg prt	0 pmol/ml/μg prt	00%	00%	43%	4 h	00%	> 24 h	84%	half-life at 2 μM (DPP IV): > 24 h; half-life at 2 μM [2]: > 24 h; half-life at 2 μM [5]: 2 h
CCc1cc(OC)ccc1-c1ccc(CC(NC(=O)[C@H](CC(=O)O)NC(=O)[C@H](CO)NC(=O)[C@@H](NC(=O)[C@H](Cc2ccccc2)NC(=O)[C@@H](NC(=O)CNC(=O)C(CCC#N)NC(=O)C(C)(C)NC(=O)[C@@H](N)Cc2c[nH]cn2)[C@@H](C)O)[C@@H](C)O)C(=O)NC(CCCc2ccccc2C(F)(F)F)C(N)=O)cc1 (single isomer, unassigned) [compound 79]	16.5 ± 0.12 pg/µg/h	22.7 ± 0.17 pg/µg/h	36.5 ± 0.05 pg/µg/h	62 ± 0.11%	94 ± 0.09%	99 ± 0.06%	99 ± 0.14%	99 ± 0.19%	6 ± 0.02 pmol/ml/μg prt	5 ± 0.03 pmol/ml/μg prt	2 ± 0.61 pmol/ml/μg prt	0 pmol/ml/μg prt	0 pmol/ml/μg prt	86%	70%	100%	0.5 h	100%	0.5 h	100%	half-life (t1/2) when incubated with human plasma [2]: (9) h; half-life at 2 μM [5]: 0.5 h
CCc1cc(OC)ccc1-c1ccc(CC(NC(=O)[C@H](CC(=O)O)NC(=O)[C@H](CO)NC(=O)[C@@H](NC(=O)C(C)(Cc2ccccc2F)NC(=O)[C@@H](NC(=O)CNC(=O)C(CCC#N)NC(=O)C(C)(C)NC(=O)[C@@H](N)Cc2c[nH]cn2)[C@@H](C)O)[C@H](C)O)C(=O)NC(CCCc2ccccc2F)C(N)=O)cc1 (single isomer, unassigned) [compound 120]	16.3 ± 0.15 pg/µg/h	22.4 ± 0.21 pg/µg/h	36.2 ± 0.11 pg/µg/h	99 ± 0.12%	99 ± 0.15%	99 ± 0.18%	99 ± 0.03%	99 ± 0.09%	0 pmol/ml/μg prt	0 pmol/ml/μg prt	0 pmol/ml/μg prt	0 pmol/ml/μg prt	0 pmol/ml/μg prt	00%	00%	41%	4 h	00%	> 24 h	80%	half-life at 2 μM (DPP IV): > 24 h; half-life at 2 μM [2]: > 24 h; half-life at 2 μM [5]: 2 h

Source: US8883963B2 (Cadila Healthcare Limited, priority 2007, dated 2014)
